The structures appear in SMILES notation.

Series [1] is described as follows: DHTz stability in PBS containing 10% mouse serum. Particulars: 1 h. In kind it is in vitro ADME. An excerpt: A challenge to the development of catalytic methods for turning on the tetrazine ligation was the identification of a DHTz/Tz pair that would be stable in both oxidation states (FIG. 1, panel B). For most redox couples, either the DHTz is too readily oxidized in air (e.g., 1), or the Tz is too reactive toward water and other nucleophiles (e.g., 2). The inventors show here that the dipyridyl DHTz/Tz pair (3/4) has good stability in both states (FIG. 1, panel C). Dihydrotetrazines 3 are highly resistant toward background oxidation in organic solvents, and a number of derivatives have been synthesized and shown stable even to silica gel chromatography. […] Aqueous solutions of 3a were handled in glassware that had been first rinsed with 2.0 mM EDTA in PBS to remove adventitious metal impurities. After standing in the dark at 25° C. in PBS buffer, a solution of 3a was monitored by UV-vis and shown to retain 99 and 96% of the DHTz oxidation state over 30 min and 2.5 hours respectively. […] In PBS containing 10% mouse serum, 90% of 3a was retained in the DHTz oxidation state after 1 h. Analogs of tetrazines 4 have been described previously and used broadly for applications in nuclear medicine and cell imaging. […]

For series [2], the target named is T1, horseradish peroxidase (HRP) (Armoracia rusticana, UniProt P00433).
T1 sequence (P00433 31-338): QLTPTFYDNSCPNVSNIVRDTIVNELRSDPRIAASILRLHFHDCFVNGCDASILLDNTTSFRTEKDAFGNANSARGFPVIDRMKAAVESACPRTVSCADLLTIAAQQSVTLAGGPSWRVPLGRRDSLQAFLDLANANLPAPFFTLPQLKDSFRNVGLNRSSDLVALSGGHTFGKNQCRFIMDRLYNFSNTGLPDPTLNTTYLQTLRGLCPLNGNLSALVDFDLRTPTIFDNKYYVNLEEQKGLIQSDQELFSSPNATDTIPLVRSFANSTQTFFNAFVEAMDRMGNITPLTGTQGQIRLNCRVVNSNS
The experiment in a line: Horseradish peroxidase (HRP) catalyzed oxidation of DHTz to tetrazine. It is filed as biochemical. To be noted: HRP 15 nM; for Rate of HRP Oxidation of 3a: first 10 seconds. The procedure: Upon addition of horseradish peroxidase (15 nM) the UV-vis spectrum was monitored every 10 seconds. With 50% conversion after 100 seconds, complete conversion of 3a to 4a is observed after 600 seconds, as evidenced by the decrease in the absorption at 292 nm and increase at 325 nm with an isosbestic point at 303 nm. Similar spectral changes are observed when 3a is electrochemically oxidized to 4a in aqueous solution, or when the oxidation of 3a to 4a is photocatalyzed by methylene blue. […] Methylene blue was considered a particularly attractive sensitizer due to its clinical relevance, low molecular weight, low toxicity, high solubility, and an absorption spectrum (λmax 665 nm) that extends to the near IR. Further, methylene blue has previously been explored for applications in photodynamic therapy based on oxidation of indole-3-acetic acid. Rose bengal (λmax 550 nm), used in a range of biomedical applications, was also identified as an excellent sensitizer. […] Methylene blue (4 μM) also catalyzed the conversion of 3a to 4a in the presence of ambient light, with 47% conversion noted after 2 h. […] The mechanism of photooxidation more likely involves electron transfer and is the subject of ongoing study.
As a complement to these photocatalyzed reactions, the inventors observed that HRP can efficiently catalyze the oxidation of 3a in the dark at low enzyme concentration (15 nM) (FIG. 4). While HRP typically requires H2O2 as the terminal oxidant, the addition of HRP to a peroxide-free solution of 3a (30 μM) in PBS led to the rapid formation of 4a (FIG. 4, panel B). […] Neither cytochrome c nor hemoglobin were effective catalysts of DHTz oxidation, with only slow conversion of 3a to 4a even with heme concentrations that were nearly 3 orders of magnitude higher than that used with HRP.
Solutions (1 mL) containing 3a (30 μm) in PBS buffer were prepared in a cuvette from stock solutions. Oxidation of 3a to 4a was monitored by recording absorbance at 325 nm every 10 seconds while either hydrogen peroxide (2 mM), HRP (15 nM) or both were added (FIG. 4, panel B). For the superoxide dismutase experiment, HRP (15 nM) was added followed by SOD (770 nM) 40 seconds later (FIG. 4, panel C). For the kinetics experiments, solutions (1 mL) containing 3a in PBS buffer with EDTA (2 mM) were prepared in the following concentrations of 3a: 9, 17, 34, 50, 83, 150 and 200 μM. The oxidation rate was determined by observing the conversion of 3a to 4a in the first 10 seconds after mixing in HRP (15 nM) and subtracting the background oxidation prior to the addition of HRP.

In series [3] the target is T1, horseradish peroxidase (HRP). Described as above. In kind it is biochemical. To be noted: [3a] 8 μM; HRP 15 nM; first 10 seconds.
Another series relates to ferricytochrome C. Nature of the series: Background oxidation of DHTZ by ferricytochrome C. In kind it is biochemical. Particulars: ferricytochrome c two orders of magnitude higher concentration than APEX2. The source says: Superoxide has been reported to reduce ferricytochrome C Fe(III) to ferrocytochrome C Fe(II) and O2. Superoxide production during oxidation of DHTZ by APEX2 (SEQ ID NO:1) has been detected by following the reduction of ferricytochrome C Fe(III) to ferrocytochrome C Fe(II) (λmax=550 nm) by UV-Vis spectrometry (FIG. 11C-D). Two wavelengths, 325 nm for tetrazine formation and 550 nm for ferrocytochrome c formation, were followed where reduction of ferricytochrome C by the superoxide byproduct formed during DHTZ oxidation was observed. Addition of SOD stopped the formation of ferrocytochrome C, thus confirming that superoxide is formed during oxidation of DHTZ by APEX2 (SEQ ID NO:1). A stoichiometric background oxidation of DHTZ by ferricytochrome C was observed where the rate of the oxidation of 15 by ferricytochrome c was 2× slower than APEX2 (SEQ ID NO:1) at ferricytochrome c concentrations two orders of magnitude higher than APEX2 (SEQ ID NO:1). While oxidation of DHTZ by cytochrome C is not catalytic or feasible for intracellular applications, it does confirm that DHTZ undergoes two successive one-electron oxidations as cytochrome C cannot oxidize substrates by two-electron oxidations.
15 (10 μM) from stock solution was added to PBS containing 100 μM EDTA. Ferricytochrome C (60 μM) was dosed in after 10 seconds followed by addition of APEX2 (SEQ ID NO:1) ([…]). […]

For `O=C(O)CCC(=O)Nc1ccc(C2=NNC(c3ccccn3)=NN2)nc1` [3a, 4-oxo-4-((6-(6-(pyridin-2-yl)-1,4-dihydro-1,2,4,5-tetrazin-3-yl)pyridin-3-yl)amino)butanoic Acid], the “retained in the DHTz oxidation state” value in series [1] came out at 90%. The “time to complete conversion of 3a to 4a” value in series [2] came to 600 s. For the same molecule, the “conversion of 3a to 4a” value in series [2] (after 100 seconds) is recorded as 50%. Also, the “Rate of HRP Oxidation of 3a” value was found to be 5.6e-08 M/s in series [2] ([3a] 17 μM); 8.9e-08 M/s in series [2] ([3a] 34 μM); 1.2e-07 M/s in series [2] ([3a] 50 μM); 2.1e-07 M/s in series [2] ([3a] 83 μM); 2.5e-07 M/s in series [2] ([3a] 150 μM); 2.6e-07 M/s in series [2] ([3a] 200 μM). Besides, the “Rate of HRP Oxidation of 3a” value in series [3] came out at 3.4e-08 M/s.
Take `O=C(O)CCCC(=O)Nc1ccc(C2=NNC(c3ccccn3)=NN2)nc1` [compound 15]: in the series with ferricytochrome C, the “rate of oxidation by ferricytochrome c slower than APEX2” value turned out to be 2 ×.

Source of the values: patent US11485987B2, “Methods for inducing bioorthogonal reactivity” (University of Delaware, priority 2015, dated 2022).
